The text below walks through data of ChEMBL document CHEMBL1133836, “Anchoring and bola cationic amphiphiles for nucleotide delivery. Effects of orientation and extension of hydrophobic regions” (2001).

Structures are written as SMILES.

What all share (assay type): functional, Mus musculus
The subject of experiment [1] is NIH3T3. Kind of experiment: Transfection activity of the liposomes derived from compound determined by luciferase assay at 12.5 nmol.
Experiment [2] relates to NIH3T3. Kind of experiment: Transfection activity of the liposomes derived from compound determined by luciferase assay at 25 nmol.
Experiment [3] concerns NIH3T3. Kind of experiment: Cytotoxicity expressed as percent viability of liposome-plasmid DNA complex at 12.5 nmol.
Experiment [4] deals with NIH3T3. Kind of experiment: Cytotoxicity expressed as percent viability of liposome-plasmid DNA complex at 50 nmol.
For experiment [5], the system named is NIH3T3. Kind of experiment: Cytotoxicity expressed as percent viability of liposome-plasmid DNA complex at 25 nmol.
For experiment [6], the system named is NIH3T3. Kind of experiment: Cytotoxicity expressed as percent viability of liposome-plasmid DNA complex at 100 nmol.
For experiment [7], the system named is NIH3T3. Kind of experiment: Cytotoxicity expressed as percent viability of liposome-plasmid DNA complex.

In the case of `C[C@H](CCC(=O)NCCCNCCCCN)C1CCC2C3CCC4CC(OC/C=C/CO[C@@H]5CC[C@]6(C)C(CCC7C6CC[C@]6(C)C7CCC6[C@H](C)CCC(=O)NCCCNCCCCN)C5)CC[C@]4(C)C3CC[C@@]21C` (stereo partly drawn), in experiment [1], the Transfection activity is 1000000 RLU (mg of protein)-1.
As to `C[C@H](CCC(=O)NCCCNCCCCN)C1CCC2C3CCC4CC(OC/C=C/CO[C@H]5CC[C@]6(C)C(CCC7C6CC[C@]6(C)C7CCC6[C@H](C)CCC(=O)NCCCNCCCCN)C5)CC[C@]4(C)C3CC[C@@]21C` (stereo partly drawn), the Transfection activity in experiment [1] is on record as 1500000 RLU (mg of protein)-1; in experiment [2], 2000000 RLU (mg of protein)-1. Besides, the Viability was determined as 95% in experiment [3], 40% in experiment [4], 75% in experiment [5] and 5% in experiment [6].
`CC(C)CCC[C@@H](C)C1CCC2C3CC=C4CC(OC(=O)NCCN(C)C)CCC4(C)C3CCC21C` (stereo partly drawn) had a Viability in experiment [7] of 95%.
